Reference: ChEMBL document CHEMBL4376834, “Discovery of 4H-Chromen-4-one Derivatives as a New Class of Selective Rho Kinase (ROCK) Inhibitors, which Showed Potent Activity in ex Vivo Diabetic Retinopathy Models” (J Med Chem, 2019)
≈ marks a conversion by molar mass, not a printed value.

Experiments:
[1] = target: Phosphatidylinositol 4-phosphate 3-kinase C2 domain-containing subunit alpha (Homo sapiens, UniProt O00443); assay: Inhibition of human PI3KC2
[2] = target: Mitogen-activated protein kinase 11 (Homo sapiens, UniProt Q15759); assay: Inhibition of recombinant human full length SAPK2b using myelin basic protein as substrate incubated for 40 mins in presence of [gamma33P]ATP by radiometric scintillation counting analysis
Mitogen-activated protein kinase 11, sequence (Q15759 whole entry, the tested form may be a part): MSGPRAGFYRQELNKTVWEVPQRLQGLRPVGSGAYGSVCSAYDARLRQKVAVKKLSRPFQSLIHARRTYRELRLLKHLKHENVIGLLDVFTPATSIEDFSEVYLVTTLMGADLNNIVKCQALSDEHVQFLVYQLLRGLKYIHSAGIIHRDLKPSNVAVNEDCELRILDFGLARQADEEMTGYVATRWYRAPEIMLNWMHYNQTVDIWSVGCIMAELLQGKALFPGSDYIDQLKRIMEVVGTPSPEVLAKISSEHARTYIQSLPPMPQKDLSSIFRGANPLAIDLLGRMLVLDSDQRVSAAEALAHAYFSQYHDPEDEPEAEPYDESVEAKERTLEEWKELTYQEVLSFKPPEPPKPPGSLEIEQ

[3] = target: Serine/threonine-protein kinase 26 (Homo sapiens, UniProt Q9P289); assay: Inhibition of recombinant human MST4 (4 to 304 residues) using RLGRDKYKTLRQI as substrate measured after 40 mins in presence of [gamma33P]ATP by radiometric scintillation counting analysis
[4] = target: Insulin-like growth factor 1 receptor (Homo sapiens, UniProt P08069); assay: Inhibition of human recombinant IGF1R (959 to end residues) using KKKSPGEYVNIEF as substrate after 40 mins by [gamma-33ATP] by radiometric scintillation counting analysis
[5] = target: Receptor-interacting serine/threonine-protein kinase 2 (Homo sapiens, UniProt O43353); assay: Inhibition of recombinant human RIPK2 (1 to 299 residues) using MBP as substrate incubated for 120 mins in presence of [gamma33P]ATP by radiometric scintillation counting analysis
[6] = target: Fibroblast growth factor receptor 4 (Homo sapiens, UniProt P22455); assay: Inhibition of recombinant human FGFR4 (442 to 755 residues) using poly(Glu, Tyr) 4:1 as substrate after 40 mins in presence of [gamma-33ATP] by radiometric scintillation counting analysis
[7] = Inhibition of recombinant human DDR1 V833L mutant (492 to end residues) using KKKSPGEYVNIEF as substrate after 40 mins in presence of [gamma-33ATP] by radiometric scintillation counting analysis
[8] = target: Non-receptor tyrosine-protein kinase TYK2 (Homo sapiens, UniProt P29597); assay: Inhibition of recombinant human TYK2 (875 to end residues) using GGMEDIYFEFMGG as substrate incubated for 40 mins in presence of [gamma33P]ATP by radiometric scintillation counting analysis
[9] = target: Serine/threonine-protein kinase ULK2 (Homo sapiens, UniProt Q8IYT8); assay: Inhibition of recombinant human ULK2 (1 to 306 residues) using casein as substrate incubated for 40 mins in presence of [gamma33P]ATP by radiometric scintillation counting analysis
[10] = target: Dual specificity tyrosine-phosphorylation-regulated kinase 2 (Homo sapiens, UniProt Q92630); assay: Inhibition of recombinant full length human DYRK2 using casein as substrate after 40 mins in presence of [gamma-33ATP] by radiometric scintillation counting analysis
[11] = target: Dual specificity tyrosine-phosphorylation-regulated kinase 1B (Homo sapiens, UniProt Q9Y463); assay: Inhibition of recombinant full length human DYRK1B using RRRFRPASPLRGPP as substrate after 40 mins in presence of [gamma-33ATP] by radiometric scintillation counting analysis
[12] = target: Tyrosine-protein kinase ABL1 (Homo sapiens, UniProt P00519, T315I); assay: Inhibition of human recombinant ABL1 T315I mutant (27 to end residues) using EAIYAAPFAKKK as substrate incubated for 40 mins in presence of [gamma-33P]ATP by radiometric scintillation counting analysis
[13] = target: Proto-oncogene tyrosine-protein kinase Src (Homo sapiens, UniProt P12931); assay: Inhibition of recombinant human SRC (1 to 530 residues) using GGEEEEYFELVKK as substrate incubated for 40 mins in presence of [gamma33P]ATP by radiometric scintillation counting analysis
[14] = Inhibition of recombinant human MARK1 V16E/T20S double mutant (2 to end residues) using KKKVSRSGLYRSP as substrate incubated for 40 mins in presence of [gamma-33ATP by radiometric scintillation counting analysis
[15] = target: Serine/threonine-protein kinase WNK2 (Homo sapiens, UniProt Q9Y3S1); assay: Inhibition of recombinant human WNK2 (166 to 489 residues) using myelin basic protein as substrate incubated for 40 mins in presence of [gamma33P]ATP by radiometric scintillation counting analysis
Serine/threonine-protein kinase WNK2, sequence (Q9Y3S1 whole entry, the tested form may be a part, canonical isoform): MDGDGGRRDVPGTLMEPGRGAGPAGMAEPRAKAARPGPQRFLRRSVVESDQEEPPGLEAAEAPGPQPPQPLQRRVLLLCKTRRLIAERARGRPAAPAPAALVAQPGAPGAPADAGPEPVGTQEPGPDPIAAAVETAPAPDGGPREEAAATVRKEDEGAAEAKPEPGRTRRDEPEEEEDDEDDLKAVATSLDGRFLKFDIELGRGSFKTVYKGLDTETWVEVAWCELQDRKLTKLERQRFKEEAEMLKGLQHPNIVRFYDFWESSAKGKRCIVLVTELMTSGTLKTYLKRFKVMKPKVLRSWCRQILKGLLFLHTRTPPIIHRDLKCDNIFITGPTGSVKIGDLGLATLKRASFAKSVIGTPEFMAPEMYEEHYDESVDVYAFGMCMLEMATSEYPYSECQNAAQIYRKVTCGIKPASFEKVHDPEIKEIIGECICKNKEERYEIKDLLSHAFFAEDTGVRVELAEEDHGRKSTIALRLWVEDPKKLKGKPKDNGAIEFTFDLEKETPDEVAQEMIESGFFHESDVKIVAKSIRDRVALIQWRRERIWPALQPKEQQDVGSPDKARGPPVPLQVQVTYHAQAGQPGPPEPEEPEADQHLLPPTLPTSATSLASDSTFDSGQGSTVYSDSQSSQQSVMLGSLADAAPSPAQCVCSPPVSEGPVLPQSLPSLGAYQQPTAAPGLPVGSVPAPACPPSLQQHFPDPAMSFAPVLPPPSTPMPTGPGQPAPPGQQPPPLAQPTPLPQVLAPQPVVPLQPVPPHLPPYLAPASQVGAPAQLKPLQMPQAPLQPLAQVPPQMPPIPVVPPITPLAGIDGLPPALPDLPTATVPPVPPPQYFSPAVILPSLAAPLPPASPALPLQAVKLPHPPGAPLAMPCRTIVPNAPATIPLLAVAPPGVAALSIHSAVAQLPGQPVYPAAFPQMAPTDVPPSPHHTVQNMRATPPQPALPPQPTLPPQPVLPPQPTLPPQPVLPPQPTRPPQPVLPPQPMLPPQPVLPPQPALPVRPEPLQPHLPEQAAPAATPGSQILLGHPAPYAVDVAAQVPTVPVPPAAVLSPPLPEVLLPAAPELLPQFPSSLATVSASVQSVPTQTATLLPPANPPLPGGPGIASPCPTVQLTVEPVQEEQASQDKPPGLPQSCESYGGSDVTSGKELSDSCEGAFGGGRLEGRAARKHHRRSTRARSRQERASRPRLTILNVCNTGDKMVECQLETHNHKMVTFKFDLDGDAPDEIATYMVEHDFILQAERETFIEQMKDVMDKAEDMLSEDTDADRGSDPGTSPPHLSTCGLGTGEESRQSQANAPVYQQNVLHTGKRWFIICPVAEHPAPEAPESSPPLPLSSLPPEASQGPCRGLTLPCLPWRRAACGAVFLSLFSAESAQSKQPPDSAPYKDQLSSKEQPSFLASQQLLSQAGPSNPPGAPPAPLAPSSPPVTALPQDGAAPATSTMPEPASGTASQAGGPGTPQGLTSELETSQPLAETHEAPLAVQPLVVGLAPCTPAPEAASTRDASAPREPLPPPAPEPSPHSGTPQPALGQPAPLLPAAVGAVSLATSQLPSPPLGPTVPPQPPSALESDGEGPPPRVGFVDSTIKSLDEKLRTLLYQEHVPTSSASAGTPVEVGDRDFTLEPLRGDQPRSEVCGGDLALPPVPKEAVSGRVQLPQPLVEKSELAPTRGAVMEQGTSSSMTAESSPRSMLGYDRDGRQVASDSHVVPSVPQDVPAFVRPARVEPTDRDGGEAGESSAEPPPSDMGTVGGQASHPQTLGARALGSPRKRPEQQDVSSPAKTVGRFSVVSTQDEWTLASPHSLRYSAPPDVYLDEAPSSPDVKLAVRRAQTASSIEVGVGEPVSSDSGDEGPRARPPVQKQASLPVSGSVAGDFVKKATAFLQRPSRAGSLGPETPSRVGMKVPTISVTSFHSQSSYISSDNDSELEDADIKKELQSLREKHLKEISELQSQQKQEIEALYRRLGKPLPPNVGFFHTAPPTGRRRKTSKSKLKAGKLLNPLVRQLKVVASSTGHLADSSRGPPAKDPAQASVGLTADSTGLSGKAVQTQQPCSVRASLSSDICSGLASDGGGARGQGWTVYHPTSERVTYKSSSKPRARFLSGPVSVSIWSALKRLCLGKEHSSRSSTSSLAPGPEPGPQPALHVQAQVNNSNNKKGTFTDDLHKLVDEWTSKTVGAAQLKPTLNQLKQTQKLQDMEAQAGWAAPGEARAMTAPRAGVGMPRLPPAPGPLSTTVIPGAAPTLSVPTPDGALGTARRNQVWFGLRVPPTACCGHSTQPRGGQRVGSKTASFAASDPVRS

[16] = target: Phosphorylase b kinase gamma catalytic chain, liver/testis isoform (Homo sapiens, UniProt P15735, F290L); assay: Inhibition of recombinant human PhKgamma2 F290L (1 to 301 residues) usingKKLNRTLSFAEPG as substrate incubated for 40 mins in presence of [gamma33P]ATP by radiometric scintillation counting analysis
Phosphorylase b kinase gamma catalytic chain, liver/testis isoform, sequence (P15735 whole entry F290L, the tested form may be a part, canonical isoform): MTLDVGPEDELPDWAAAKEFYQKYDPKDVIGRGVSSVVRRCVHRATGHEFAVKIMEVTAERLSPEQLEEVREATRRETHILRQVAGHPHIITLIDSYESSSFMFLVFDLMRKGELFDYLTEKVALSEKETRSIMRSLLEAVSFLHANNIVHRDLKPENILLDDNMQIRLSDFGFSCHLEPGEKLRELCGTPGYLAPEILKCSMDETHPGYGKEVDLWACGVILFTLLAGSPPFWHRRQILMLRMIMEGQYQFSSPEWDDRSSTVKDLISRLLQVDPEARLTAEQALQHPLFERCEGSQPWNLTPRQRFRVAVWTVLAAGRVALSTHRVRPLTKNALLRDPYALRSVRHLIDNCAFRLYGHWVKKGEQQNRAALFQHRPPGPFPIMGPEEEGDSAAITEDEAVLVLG

[17] = target: Tyrosine-protein kinase SYK (Homo sapiens, UniProt P43405); assay: Inhibition of recombinant human full length SYK using poly(Glu, Tyr) 4:1 as substrate incubated for 40 mins in presence of [gamma33P]ATP by radiometric scintillation counting analysis
[18] = target: Mitogen-activated protein kinase kinase kinase 3 (Homo sapiens, UniProt Q99759); assay: Inhibition of recombinant full length human MEKK3 using MBP as substrate incubated for 120 mins in presence of [gamma-33ATP by radiometric scintillation counting analysis
[19] = target: G protein-coupled receptor kinase 3 (Homo sapiens, UniProt P35626); assay: Inhibition of recombinant full length human GRK3 using casein as substrate after 40 mins in presence of [gamma-33ATP] by radiometric scintillation counting analysis
G protein-coupled receptor kinase 3, sequence (P35626 whole entry): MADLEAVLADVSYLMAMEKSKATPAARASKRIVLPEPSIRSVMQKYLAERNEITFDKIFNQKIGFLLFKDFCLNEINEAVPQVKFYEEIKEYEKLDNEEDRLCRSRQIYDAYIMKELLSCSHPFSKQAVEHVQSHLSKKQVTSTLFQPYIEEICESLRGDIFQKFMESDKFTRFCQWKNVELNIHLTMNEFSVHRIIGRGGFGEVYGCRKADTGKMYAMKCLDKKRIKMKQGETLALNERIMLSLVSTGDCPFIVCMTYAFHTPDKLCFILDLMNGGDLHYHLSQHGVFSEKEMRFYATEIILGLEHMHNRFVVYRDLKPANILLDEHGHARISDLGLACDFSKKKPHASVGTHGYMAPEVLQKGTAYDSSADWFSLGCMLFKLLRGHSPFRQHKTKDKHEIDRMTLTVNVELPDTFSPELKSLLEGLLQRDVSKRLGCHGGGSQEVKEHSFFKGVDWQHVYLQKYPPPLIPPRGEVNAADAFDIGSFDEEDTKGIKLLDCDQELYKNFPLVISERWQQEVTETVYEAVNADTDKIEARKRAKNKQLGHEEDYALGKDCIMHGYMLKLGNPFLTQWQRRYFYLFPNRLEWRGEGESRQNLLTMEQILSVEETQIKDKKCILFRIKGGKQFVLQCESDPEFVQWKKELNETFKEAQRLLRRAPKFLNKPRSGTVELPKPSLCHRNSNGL

[20] = target: Hepatocyte growth factor receptor (Homo sapiens, UniProt P08581, M1250T); assay: Inhibition of recombinant human MET A1209G/V1290L/M1268T triple mutant (974 to end residues) using KKKGQEEEYVFIE as substrate incubated for 40 mins in presence of [gamma-33ATP by radiometric scintillation counting analysis
Hepatocyte growth factor receptor, sequence (P08581 25-1390 M1250T limits assumed): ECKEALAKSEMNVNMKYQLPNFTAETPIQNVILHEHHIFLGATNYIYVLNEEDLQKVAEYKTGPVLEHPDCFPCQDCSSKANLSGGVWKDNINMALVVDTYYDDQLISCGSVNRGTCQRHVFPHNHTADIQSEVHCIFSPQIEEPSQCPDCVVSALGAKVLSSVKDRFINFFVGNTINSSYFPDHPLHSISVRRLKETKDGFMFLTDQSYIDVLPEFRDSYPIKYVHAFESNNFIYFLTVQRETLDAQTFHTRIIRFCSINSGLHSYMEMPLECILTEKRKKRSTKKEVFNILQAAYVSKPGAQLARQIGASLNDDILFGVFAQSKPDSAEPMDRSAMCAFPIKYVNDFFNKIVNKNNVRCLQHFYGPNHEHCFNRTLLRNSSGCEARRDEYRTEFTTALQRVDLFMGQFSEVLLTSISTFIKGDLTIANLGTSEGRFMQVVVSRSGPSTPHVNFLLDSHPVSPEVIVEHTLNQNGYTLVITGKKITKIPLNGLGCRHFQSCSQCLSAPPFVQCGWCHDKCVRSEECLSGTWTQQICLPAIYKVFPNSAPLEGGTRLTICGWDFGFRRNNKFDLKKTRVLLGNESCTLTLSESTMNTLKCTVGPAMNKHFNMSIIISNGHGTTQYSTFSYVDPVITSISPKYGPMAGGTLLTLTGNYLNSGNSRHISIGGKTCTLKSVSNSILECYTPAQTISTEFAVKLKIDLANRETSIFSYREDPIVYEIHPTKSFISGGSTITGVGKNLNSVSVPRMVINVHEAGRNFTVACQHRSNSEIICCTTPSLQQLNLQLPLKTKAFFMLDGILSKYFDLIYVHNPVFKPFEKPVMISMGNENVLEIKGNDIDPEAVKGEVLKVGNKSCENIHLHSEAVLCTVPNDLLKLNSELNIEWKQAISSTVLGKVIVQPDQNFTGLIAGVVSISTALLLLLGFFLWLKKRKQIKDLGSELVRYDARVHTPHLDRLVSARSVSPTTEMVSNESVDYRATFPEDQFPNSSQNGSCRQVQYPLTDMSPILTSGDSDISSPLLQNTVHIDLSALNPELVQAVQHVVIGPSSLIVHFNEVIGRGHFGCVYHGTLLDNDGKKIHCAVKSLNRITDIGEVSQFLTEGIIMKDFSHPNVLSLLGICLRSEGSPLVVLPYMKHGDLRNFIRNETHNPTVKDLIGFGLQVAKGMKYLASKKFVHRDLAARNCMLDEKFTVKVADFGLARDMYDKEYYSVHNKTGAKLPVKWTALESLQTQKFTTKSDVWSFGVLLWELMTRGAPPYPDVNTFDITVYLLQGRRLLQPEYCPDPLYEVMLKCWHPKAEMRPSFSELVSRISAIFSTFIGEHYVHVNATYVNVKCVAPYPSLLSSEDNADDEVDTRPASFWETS

[21] = target: Tyrosine-protein kinase ABL1 (Homo sapiens, UniProt P00519, H396P); assay: Inhibition of human recombinant ABL1 H396P mutant (27 to end residues) using EAIYAAPFAKKK as substrate incubated for 40 mins in presence of [gamma-33P]ATP by radiometry scintillation counting analysis assay
Ephrin type-A receptor 8 = Ephrin type-A receptor 8 (Homo sapiens, UniProt P29322); assay: Inhibition of recombinant human EPhA8 (615 to 911 residues) at 10 uM using KTFCGTPEYLAPE as substrate incubated for 40 mins in presence of [gamma-33PATP] by radiometric scintillation counting analysis
[22] = target: MAP kinase-interacting serine/threonine-protein kinase 2 (Homo sapiens, UniProt Q9HBH9); assay: Inhibition of recombinant full length human MNK2 using myelin basic protein as substrate incubated for 40 mins in presence of [gamma-33ATP by radiometric scintillation counting analysis
[23] = target: Mast/stem cell growth factor receptor Kit (Homo sapiens, UniProt P10721, V560G); assay: Inhibition of recombinant human C-Kit V560G mutant (544 to end residues) using poly(Glu, Tyr) 4:1 as substrate incubated 40 mins in presence of [gamma-33ATP] by radiometric scintillation counting analysis
[24] = Solubility of compound in miniQ water at 1 mg at 37 degreeC incubated under shaking conditions for overnight by LC-MS analysis; format: physicochemical

CN(C)c1ccc(C(=O)Nc2cccc(NC(=O)COc3ccc4c(=O)ccoc4c3)c2)cc1
IC50 [1]: > 10 µM
IC50 [2]: > 10 µM
IC50 [3]: > 10 µM
IC50 [4]: > 10 µM
IC50 [5]: > 10 µM
IC50 [6]: > 10 µM
IC50 [7]: > 10 µM
IC50 [8]: > 10 µM
IC50 [9]: > 10 µM
IC50 [10]: > 10 µM
IC50 [11]: > 10 µM
IC50 [12]: > 10 µM
IC50 [13]: > 10 µM
IC50 [14]: > 10 µM
IC50 [15]: > 10 µM
IC50 [16]: > 10 µM
IC50 [17]: > 10 µM
IC50 [18]: > 10 µM
IC50 [19]: > 10 µM
IC50 [20]: > 10 µM
IC50 [21]: > 10 µM
IC50 (Ephrin type-A receptor 8): > 10 µM
IC50 [22]: > 10 µM
IC50 [23]: > 10 µM
solubility thermodynamic [24]: 0.634 µg/mL (≈ 1.39 µM)
